# Laboratory results from patent US20200378993A1, “MEDICAL USES OF APOLIPOPROTEIN A AND ACTIVATORS THEREOF” (FUNDACIÓN IMDEA ALIMENTACIÓN, priority 2017, published 2020).
# Legend:
# Assay type in all cases: cell-based, human
# [1] = system: D1D1 cell lines expressing increased ApoA1 levels (D_ApoA1); experiment: Cell viability and proliferation (xCELLigence) with ShApoA1/scramble transfection; details: 30 μM RVX-208, ApoA1 expression not inhibited (Scr+Rvx-208); D_ApoA1 cells
# Experimental: FIG. 9: A) Proliferation curve in a viability assay carried out by means of XCELLigence technology. Growth of DLD1 cells treated with DMSO as the drug carrier and with Rvx-208 (30 μM). Control cells (scramble, SCR) are shown in black. Cells transfected with anti-ApoA1 short hairpin are shown in gray. The significant differences existing in the values of the slope of the graphs on the left-hand side, and therefore in the growth dynamics of the treated cells, are shown in the right panels (*p-value=0.0471; **p-value=0.0067; ****p-value<0.0001). B) Invasion assays in cells with silenced ApoA1 expression. For the purpose of confirming that the effects of RVX-208 in cell phenotype recovery were due to the increase in ApoA-1 expression, the inventors inhibited the expression of said protein by means of transfection of a complementary small RNA, ShApoA1 (FIG. 9). Twenty-four hours after transfection with ShApoA1 expression vector, the inventors started treatment with 30 μM of RVX-208. Cell viability and proliferation in DLD1 cells (D_NoORF) and D1D1 cell lines expressing increased ApoA1 levels (D_ApoA1 ) were analyzed with the xCELLigence system.
# [2] = system: ABCA1 cholesterol transporter; experiment: ABCA1 messenger RNA and protein level after treatment; details: treatment with Rvx-208 (30 μM); Western blot
# Experimental: (§1) FIG. 6. A) Proliferation curve in a viability assay carried out by means of XCELLigence technology. The results for the stable cell line overexpressing ABCA1 in the absence and presence of ApoA1 are shown. The cells were treated for 72 hours before the experiment with 40 μg/ml of ApoA1 and with a concentration of 20 μg/ml during acquisition. B) Migration and invasion assays. The method followed was the same as the one described in FIG. 1. (**p-value=0.003; ****p-value<0.0001). C) ABCA1 messenger RNA level (left panel) and ABCA1 protein level (right panel) in the presence and absence of treatment with ApoA1. Results are shown both for the control cells and for those cells overexpressing the transporter.
# FIG. 7. A) Proliferation curve in a viability assay carried out by means of XCELLigence technology. Growth of DLD1 cells treated with DMSO as the drug carrier and with Rvx-208 (30 μM). The significant differences existing in the slope of the graph, and therefore in the growth dynamics of the treated cells are shown in the right panel (****p-value<0.0001). B) Migration and invasion assays. The method followed was the same as the one described in FIG. 2 (*p-value=0.0407; ****p-value<0.0001). C) Expression levels of proteins E-cadherin and Vimentin in the presence and absence of Rvx-208. Analysis performed by means of quantitative PCR. The relative expression levels normalized with respect to the untreated control are shown. D) ABCA1, ApoA1, caveolin-1, and α-tubulin immunodetection by means of Western blot. α-tubulin acts as load control. The results of the cells treated with Rvx-208 (30 μM) or with the DMSO carrier are shown. E) Cholesterol flux in cells treated with Rvx-208.
# Cell viability and proliferation assays were carried out by means of XCELLigence technology (ACEA Biosciences, Inc.) following the manufacturer's indications. Migration and invasion assays were carried out in Corning® BioCoat™ Control plates (#354578) and Corning® BioCoat™ Matrigel plates (#354480), respectively, following the manufacturer's indications. For the rescue assays, the cells were treated for 72 hours with 30 μM apabetalone (RVX-208; Biovision). Antibodies: ABCA1 (Ab18180, Abcam. 1:500); caveolin-1 (Ab2910, Abcam. 1:1000); α-tubulin (T9026, Sigma 1:1000). The DLD1 cells correspond to a human colorectal cancer-derived adherent epithelial cell line (ATCC® CCL-221™). […]
# (§2) The inventors were able to confirm said results based on the treatment of DLD1 cells expressing ABCA1 with RVX-208 under the conditions already described in detail in Example 3. […] The levels of caveolin-1, a protein whose increased levels have been associated with increases in cell migration and invasion, were also analyzed in this experiment.
# DLD1_ABCA1 cells = experiment: Invasion assay (Corning BioCoat Matrigel plates); details: Rvx-208 with ApoA1 silenced by shApoA1; cells with high ABCA1 levels
# Experimental: as §1, with “Results are shown both for the control cells and for those cells overexpressing the transporter.” left out
# as §2
# For the purpose of confirming that the effects of RVX-208 in cell phenotype recovery were due to the increase in ApoA-1 expression, the inventors inhibited the expression of said protein by means of transfection of a complementary small RNA, ShApoA1 (FIG. 9). […] Cell viability and proliferation in DLD1 cells (D_NoORF) and D1D1 cell lines expressing increased ApoA1 levels (D_ApoA1 ) were analyzed with the xCELLigence system.
smiles,measurement,setting,value
"COc1cc(OC)c2c(=O)[nH]c(-c3cc(C)c(OCCO)c(C)c3)nc2c1 [RVX-208, 2-(4-(2-hydroxyethoxy)-3,5-dimethylphenyl)-5,7-dimethoxyquinazolin-4(3H)-one]",proliferation indices,[1],significantly lower
same,ABCA1 expression levels,[2],reduces ABCA1 expression levels
same,effectiveness of treatment in terms of a decrease in cell invasion capacities,DLD1_ABCA1 cells,reduces the effectiveness of treatment
